Test results reported in patent US5273991A, “Imidazole-containing compositions and methods of use thereof analogs of distamycin” (Research Corporation Technologies, Inc., priority 1992, dated 1993).

Assays:
T4 coliphage DNA = assay: ethidium displacement assay, T4 coliphage DNA; format: binding; conditions: ± 0.02 × 10^5 M^-1, pH 7.4
From the text: The ethidium displacement assay is based on the fact that ethidium binding to DNA causes a large (approximately 25 fold) florescence enhancement as a result of the hydrophobic environment surrounding the ethidium molecule. Displacement of ethidium results in decreased fluorescence, and thus binding constants of drugs to DNA can be estimated and compared by measuring the loss of fluorescence as a function of added drug. The drug concentration which produces 50% inhibition of florescence is approximately inversely proportional to the apparent binding constant.
The apparent binding constants for T4 coliphage DNA are an indicator of the minor groove selectivity of the compounds of the present invention. The major groove of T4 coliphage DNA is blocked by α-glycosylation of the 5-hydroxymethylcytidine residues; therefore, the non-intercalating agents that bind to T4 coliphage DNA must interact in the minor groove [Lown (1982) Acc. Chem. Res., 15, 381].
The relative DNA binding constants (Kapp) of distamycin and Compounds 6-10 to calf thymus DNA, T4 coliphage DNA, poly(dAdT) and poly(dGdC) were determined using the ethidium displacement assay (Morgan et al., 1979). The Kapp of ethidium bromide (Debart et al., 1989) is included for comparison. 25 μL of a 2A260 DNA solution was added to 2 mL of ethidium bromide buffer (250 μL of 1.3 mM ethidium bromidestock, 314.9 mg Tris-HCl, 60.8 mg Tris base and 930/mg of Na2 EDTA.2H2 O in 250 ml H2 O) pH 7.4 and the maximum fluorescence was measured (excitation wavelength=546 nm, emission wavelength=600 nm) at ambient temperature.
DNA solutions of 2A260 were prepared as follows: T4 coliphage DNA: 10 units of DNA were dissolved in 1 mL of 10 mM sodium phosphate (pH 7.1) and 0.25 mM EDTA buffer to give a 10A260 solution. 0.3 mL of the stock solution were diluted to 1.5 mL with 10 mM sodium phosphate (pH 7.1) and 0.25 mM EDTA buffer to give a 2A260 solution. Calf thymus DNA: 100 units of DNA were dissolved in 5 mL of 10 mM sodium phosphate (pH 7.1) and 0.25 mM EDTA buffer to give a 20A260 solution. 1.5 mL of the stock solution were diluted to 15 mL with 10 mM sodium phosphate (pH 7.1) and 0.25 mM EDTA buffer to give a 2A260 solution. Poly(dA-dT) and Poly(dG-dC) DNA: 100 units of DNA were dissolved in 10 mL of 10 mM sodium phosphate pH 7.1) and 0.25 mM EDTA buffer to give a 10A260 solution. 3 mL of the stock solution were diluted to 15 mL with 10 mM sodium phosphate (pH 7.1) and 0.25 mM EDTA buffer to give a 2A260 solution.
Aliquots of 10 mM stock drug solution (1 mg of drug to be tested was dissolved with 1 mole equivalent of 0.1M HCl, and then diluted with appropriate volume of distilled water to make a 10 mM solution) were then added to the fluorescing solution and the florescence measured after each addition until a 50% reduction of fluorescence occurred. If the 10 mM stock solution lowered the % fluorescence too quickly, the stock solution was further diluted to 1 mM prior to titration. The apparent binding constant was then calculated from this equation: KEtBr [EtBr]=Kapp [drug], where [drug]=the concentration of drug at a 50% reduction of fluorescence and KEtBr [1×10^7 M^-1 for calf thymus and coliphage T4 DNA^18, 9.5×10^6 M^-1 for poly(dA.dT)^30, and 9.9×10^6 M^-1 for poly(dG.dC)^30 ] and [EtBr] were known. The concentration of ethidium bromide was 1.3 μM. The Kapp values are shown in Table I. In a separate experiment, the Kapp of Compound 5 for calf thymus DNA and poly[dGdC] were determined to be 0.3×10^5 M^-1 and 2.6×10^5 M^-1, respectively. The error in these measurements is ±[…].

calf thymus DNA = assay: UV-dialysis study (covalent retention on DNA); format: binding; conditions: 24 h incubation at room temperature; 20-26 hours dialysis; pH 7.1
From the text: The compounds of the present invention are useful as anticancer agents. Although the biological mechanism which results in anticancer activity is not fully understood, the compounds of the subject invention are capable of binding to the minor groove of double-stranded DNA and, unlike distamycin and netropsin, can tolerate GC-containing DNA. Accordingly, the DNA alkylating moiety of the compounds of the present invention can be directed to the minor groove of GC-containing regions of double-stranded DNA. One of ordinary skill in the art can determine the DNA alkylating ability of the compounds of the present invention by art-recognized methods. The formation of an irreversible adduct of DNA and a compound of the present invention is defined herein as a measure of the DNA alkylating ability of the subject compounds. The formation of an irreversible adduct can be determined by art-recognized methods. For example, a solution containing DNA and a compound of the present invention can be exhaustively dialyzed under conditions which allow unbound drug to pass out of the dialysis bag. The percentage of the compound which has been retained in the dialysis bag is considered to be covalently bound to the DNA, and is determined by comparing the UV absorption spectrum of the compound/DNA solution before and after exhaustive dialysis.
0.5 mL of 2A260 calf thymus DNA was diluted to 2 mL with 10 mM sodium phosphate and 0.25 mM EDTA buffer, pH 7.1. Four aliquots (3 μL each) of a 1 mM stock drug solution in distilled water were added to the DNA solution and a UV absorption spectrum (300-320) was recorded after each addition. The drug/DNA solution was incubated for 24 h at room temperature and another UV spectrum was recorded. The drug/DNA solution was then transferred into a dialysis bag and the dialysis bag was suspended in 30 mL of 10 mM sodium phosphate and 0.25 mM EDTA buffer, pH, 7.1, at room temperature. After 20-26 hours, the […] spectrum of 2 mL of the buffer outside the dialysis bag was recorded. The absorbance of the drug peak was converted to concentration by the Beer-Lambert equation, and the data was presented as percent initial concentration. Under these conditions, substantial amounts of Compounds 6 (55±5%), 7 (45±5%), 8 (85±5%) and 10 (100±5%) are retained in the dialysis bag, while only 29±5% of a formamido analog^1 is retained.

## CN(C)CCNC(=O)c1nc(NC(=O)c2nc(NC(=O)c3nc(NCc4ccc(N(CCCl)CCCl)cc4)cn3C)cn2C)cn1C [Compound 8, N-(N',N'-dimethylaminoethyl)-1-methyl-4-{1-methyl-4-[4-(4,4-bis-(2-chloroethyl)aminobenzylamino)-1-methylimidazole-2-carboxamido]imidazole-2-carboxamido}imidazole-2-carboxamide]
T4 coliphage DNA
  Association constant Kapp: 193000 M⁻¹
Calf thymus DNA
  retained in the dialysis bag (percent initial concentration): 85±5%

## CN(C)CCNC(=O)c1nc(NC(=O)c2nc(NC(=O)c3nc(NC(=O)CCCc4ccc(N(CCCl)CCCl)cc4)cn3C)cn2C)cn1C [Compound 10, N-(N',N'-dimethylaminoethyl)-1-methyl-4-{1-methyl-4-[4-(4,4-bis(2-chloroethyl)aminophenyl-1-butanamido)-1-methylimidazole-2-carboxamido]imidazole-2-carboxamido}imidazole-2-carboxamide]
T4 coliphage DNA
  Association constant Kapp: 19000 M⁻¹
Calf thymus DNA
  retained in the dialysis bag (percent initial concentration): 100±5%

## CN(C)CCNC(=O)c1nc(NC(=O)c2nc(NC(=O)c3ccc(N(CCCl)CCCl)cc3)cn2C)cn1C [Compound 6, N-(N',N'-dimethylaminoethyl)-1-methyl-4-{4-[4,4-bis(2-chloroethyl)aminobenzamido]-1-methylimidazole-2-carboxamido}imidazole-2-carboxamide]
T4 coliphage DNA
  Association constant Kapp: 236000 M⁻¹
Calf thymus DNA
  retained in the dialysis bag (percent initial concentration): 55±5%

## CN(C)CCNC(=O)c1nc(NC(=O)c2nc(NC(=O)c3nc(NC(=O)c4ccc(N(CCCl)CCCl)cc4)cn3C)cn2C)cn1C [Compound 7, N-(N',N'-dimethylaminoethyl)-1-methyl-4-{1-methyl-4-[4-(4,4-bis-(2-chloroethyl)aminobenzamido)-1-methylimidazole-2-carboxamido]imidazole-2-carboxamido}imidazole-2-carboxamide]
T4 coliphage DNA
  Association constant Kapp: 168000 M⁻¹
Calf thymus DNA
  retained in the dialysis bag (percent initial concentration): 45±5%

## CN(C)CCNC(=O)c1nc(NC(=O)c2nc(NC(=O)CCCc3ccc(N(CCCl)CCCl)cc3)cn2C)cn1C [Compound 9, N-(N',N'-dimethylaminoethyl)-1-methyl-4-{4-[4,4-bis(2-chloroethyl)aminophenyl-1-butanamido]-1-methylimidazole-2-carboxamido}imidazole-2-carboxamide]
T4 coliphage DNA
  Association constant Kapp: 75000 M⁻¹
